# Reference: ChEMBL document CHEMBL5380816, “Inclusion of Nitrofurantoin into the Realm of Cancer Chemotherapy via Biology-Oriented Synthesis and Drug Repurposing” (J Med Chem, 2023)
# Active and inactive are the calls of the source. The calls are words filed in the database; no cut-off is given here.
# How the values were obtained:
# [1] = test system: Caco-2; experiment: Induction of apoptosis in human Caco-2 cells assessed as early apoptotic cells incubated at 0.097 uM for 72 hrs by annexin V-FITC based propidium iodide dual staining assay (reference value: 0.07%); format: functional
# [2] = test system: HeLa; experiment: Anticancer activity against human HeLa cells assessed as losing contact with neighbouring cells incubated at 0.097uM for 72 hrs by phase contrast inverted microscopic analysis; format: functional, cell-based
# [3] = test system: Caco-2; experiment: Induction of apoptosis in human Caco-2 cells assessed as late apoptotic cells by measuring orange to red patch incubated at 0.097 uM for 72 hrs by acridine orange-ethidium bromide dual staining based fluorescence microscopic analysis; format: functional, cell-based
# [4] = test system: Caco-2; experiment: Anticancer activity against human Caco-2 cells assessed as round cells incubated at 0.097uM for 72 hrs by phase contrast inverted microscopic analysis; format: functional, cell-based
# [5] = test system: HeLa; experiment: Induction of oxidative stress in human HeLa cells assessed as cell death by measuring redox alteration fluorescence incubated at 0.097 uM for 72 hrs in presence of dihydro dichlorofluorescein diacetate by DCFH-DA based flow cytometric analysis relative to control; format: functional
# [6] = test system: MCF7; experiment: Induction of apoptosis in human MCF7 cells assessed as necrotic cells incubated at 0.097 uM for 72 hrs by annexin V-FITC based propidium iodide dual staining assay (reference value: 0.03%); format: functional
# [7] = test system: Caco-2; experiment: Induction of apoptosis in human Caco-2 cells assessed as necrotic cells incubated at 0.097 uM for 72 hrs by annexin V-FITC based propidium iodide dual staining assay (reference value: 0.02%); format: functional
# [8] = test system: HepG2; experiment: Anticancer activity against human HepG2 cells assessed as cell shrinkage incubated at 0.097uM for 72 hrs by phase contrast inverted microscopic analysis; format: functional, cell-based
# [9] = test system: MCF7; experiment: Induction of apoptosis in human MCF7 cells assessed as late apoptotic cells incubated at 0.097 uM for 72 hrs by annexin V-FITC based propidium iodide dual staining assay (reference value: 0.01%); format: functional
# [10] = test system: HeLa; experiment: Induction of apoptosis in human HeLa cells assessed as total apoptotic cells incubated at 0.097 uM for 72 hrs by annexin V-FITC based propidium iodide dual staining assay (reference value: 0 +/- 0.035%); format: functional
# [11] = test system: HepG2; experiment: Anticancer activity against human HepG2 cells assessed as losing contact with neighbouring cells incubated at 0.097uM for 72 hrs by phase contrast inverted microscopic analysis; format: functional, cell-based
# [12] = test system: MCF7; experiment: Anticancer activity against human MCF7 cells assessed as absence of normal spindle shape incubated at 0.097uM for 72 hrs by phase contrast inverted microscopic analysis; format: functional, cell-based
# [13] = test system: Caco-2; experiment: Anticancer activity against human Caco-2 cells incubated for 24 hrs by MTT assay; format: functional, cell-based; details: Caco-2, 24 h
# [14] = test system: HepG2; experiment: Anticancer activity against human HepG2 cells assessed as smaller cells incubated at 0.11 uM for 72 hrs by phase contrast inverted microscopic analysis; format: functional, cell-based
# [15] = test system: Caco-2; experiment: Induction of oxidative stress in human Caco-2 cells assessed as cell death by measuring redox alteration fluorescence incubated at 0.11 uM for 72 hrs in presence of dihydro dichlorofluorescein diacetate by DCFH-DA based flow cytometric analysis relative to control; format: functional
# [16] = test system: Caco-2; experiment: Induction of apoptosis in human Caco-2 cells assessed as caspase3/7 activation at 0.11 uM using caspase-glo 3/7 as substrate relative to control; format: functional
# [17] = test system: MDA-MB-231; experiment: Anticancer activity against human MDA-MB-231 cells incubated for 24 hrs by MTT assay; format: functional, cell-based; details: MDA-MB-231, 24 h
# [18] = test system: Caco-2; experiment: Induction of apoptosis in human Caco-2 cells assessed as necrotic cells incubated at 0.11 uM for 72 hrs by annexin V-FITC based propidium iodide dual staining assay (reference value: 0.02%); format: functional
# [19] = test system: MCF7; experiment: Induction of apoptosis in human MCF7 cells assessed as early apoptotic cells by measuring bright green patch incubated at 0.11 uM for 72 hrs by acridine orange-ethidium bromide dual staining based fluorescence microscopic analysis; format: functional, cell-based
# [20] = test system: dsDNA; experiment: Induction of damage in dsDNA (unknown origin) assessed as DNA disruption by measuring amplitude at 100 uM incubated for 2.5 hrs by EvaGreen based fluorescence plate reader analysis; format: nucleic-acid assay
# [21] = test system: MCF7; experiment: Induction of DNA damage in human MCF7 cells assessed as reduction of p53 ubiquitination at 5 uM incubated for 24 hrs by Western blot analysis; format: functional, cell-based
# [22] = test system: HeLa; experiment: Induction of oxidative stress in human HeLa cells assessed as cell death by measuring redox alteration fluorescence incubated at 0.098 uM for 72 hrs in presence of dihydro dichlorofluorescein diacetate by DCFH-DA based flow cytometric analysis relative to control; format: functional
# [23] = test system: MCF7; experiment: Induction of apoptosis in human MCF7 cells assessed as early apoptotic cells incubated at 0.098 uM for 72 hrs by annexin V-FITC based propidium iodide dual staining assay (reference value: 0.06%); format: functional
# [24] = test system: Caco-2; experiment: Induction of apoptosis in human Caco-2 cells assessed as late apoptotic cells incubated at 0.098 uM for 72 hrs by annexin V-FITC based propidium iodide dual staining assay (reference value: 0.02%); format: functional
# [25] = test system: Caco-2; experiment: Induction of apoptosis in human Caco-2 cells assessed as necrotic cells incubated at 0.098 uM for 72 hrs by annexin V-FITC based propidium iodide dual staining assay (reference value: 0.02 %); format: functional
# [26] = test system: HeLa; experiment: Induction of apoptosis in human HeLa cells assessed as necrotic cells incubated at 0.098 uM for 72 hrs by annexin V-FITC based propidium iodide dual staining assay (reference value: 0%); format: functional
# [27] = test system: HeLa; experiment: Anticancer activity against human HeLa cells assessed as cell shrinkage incubated at 0.098uM for 72 hrs by phase contrast inverted microscopic analysis; format: functional, cell-based
# [28] = test system: MCF7; experiment: Anticancer activity against human MCF7 cells assessed as cell shrinkage incubated at 0.098uM for 72 hrs by phase contrast inverted microscopic analysis; format: functional, cell-based
# [29] = test system: HepG2; experiment: Anticancer activity against human HepG2 cells assessed as losing contact with neighbouring cells incubated at 0.098uM for 72 hrs by phase contrast inverted microscopic analysis; format: functional, cell-based
# [30] = test system: Caco-2; experiment: Induction of oxidative stress in human Caco-2 cells assessed as cell death by measuring redox alteration fluorescence incubated at 0.027 uM for 72 hrs in presence of dihydro dichlorofluorescein diacetate by DCFH-DA based flow cytometric analysis relative to control; format: functional
# [31] = test system: MCF7; experiment: Induction of apoptosis in human MCF7 cells assessed as viable cells incubated at 0.098 uM for 72 hrs by annexin V-FITC based propidium iodide dual staining assay (reference value: 99.9%); format: functional; details: read-out: Activity
# [32] = test system: HepG2; experiment: Anticancer activity against human HepG2 cells assessed as smaller cells incubated at 0.098uM for 72 hrs by phase contrast inverted microscopic analysis; format: functional, cell-based
# [33] = test system: MCF7; experiment: Induction of apoptosis in human MCF7 cells assessed as necrotic cells incubated at 0.017 uM for 72 hrs by annexin V-FITC based propidium iodide dual staining assay (reference value: 0.03%); format: functional
# [34] = test system: HeLa; experiment: Induction of apoptosis in human HeLa cells assessed as necrotic cells incubated at 0.017 uM for 72 hrs by annexin V-FITC based propidium iodide dual staining assay (reference value: 0%); format: functional
# [35] = test system: Caco-2; experiment: Induction of apoptosis in human Caco-2 cells assessed as viable cells incubated at 0.017 uM for 72 hrs by annexin V-FITC based propidium iodide dual staining assay (reference value: 99.89%); format: functional; details: read-out: Activity
# [36] = test system: MCF7; experiment: Induction of apoptosis in human MCF7 cells assessed as viable cells by measuring green uniform patch incubated at 0.017 uM for 72 hrs by acridine orange-ethidium bromide dual staining based fluorescence microscopic analysis; format: functional, cell-based
smiles,measurement,setting,value
NS(=O)(=O)c1ccc(-n2cc(CN3C(=O)CN(/N=C/c4ccc([N+](=O)[O-])o4)C3=O)nn2)cc1,Activity,[1],30.95%
same,Activity,[2],Active
same,Activity,[3],Active
same,Activity,[4],Active
same,Activity,[5],53.5%
same,Activity,[6],0.6%
same,Activity,[7],13.8%
same,Activity,[8],Active
same,Activity,[9],60.48%
same,Activity,[10],39.42%
same,Activity,[11],Active
same,Activity,[12],Active
C#CCN1C(=O)CN(/N=C/c2ccc([N+](=O)[O-])o2)C1=O,IC50,[13],89 µM
same,Activity,[14],Active
same,Activity,[15],45.56%
same,Activity,[16],55%
same,IC50,[17],242 µM
same,Activity,[18],0.57%
same,Activity,[19],Active
same,Activity,[20],177
same,Activity,[21],Active
same,Activity,[22],30.75%
O=C(CN1C(=O)CN(/N=C/c2ccc([N+](=O)[O-])o2)C1=O)c1ccc(Cl)cc1,Activity,[23],4.77%
same,Activity,[24],27.58%
same,Activity,[25],3.37%
same,Activity,[26],1.16%
same,Activity,[27],Active
same,Activity,[28],Active
same,Activity,[29],Active
same,Activity,[30],54.7%
same,viability at 0.098 µM,[31],63.6%
same,Activity,[32],Active
O=c1[nH]cc(F)c(=O)[nH]1 [FLUOROURACIL],Activity,[33],0.68%
same,Activity,[34],0.89%
same,viability at 0.017 µM,[35],89.7%
same,Activity,[36],Active
